According to ChEMBL document CHEMBL1201862, “PubChem BioAssay data set” (2004):
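Briefly, cells in 96-well plates were exposed to five compound concentrations for 48 h, and endpoints were estimated by linear interpolation. The concentration for 50% growth inhibition is given as GI50.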 The source made the active and inactive calls. Rule as the data show it: active = GI50 up to about 1.1 µM and inactive = higher.

What was measured:
Test in all cases: NCI tumour cell line growth inhibition, 48 h
HCT-15 = tested on: HCT-15
OVCAR-4 = tested on: OVCAR-4
COLO 205 = tested on: COLO 205
A549 = tested on: A549
OVCAR-5 = tested on: OVCAR-5
SNB-75 = tested on: SNB-75
786-0 = tested on: 786-0
UACC-257 = tested on: UACC-257
MOLT-4 = tested on: MOLT-4
HL-60 = tested on: HL-60
SK-OV-3 = tested on: SK-OV-3
MCF7 = tested on: MCF7
SK-MEL-2 = tested on: SK-MEL-2
UACC-62 = tested on: UACC-62
Hs-578T = tested on: Hs-578T
RPMI-8226 = tested on: RPMI-8226
NCI-H460 = tested on: NCI-H460
U-251 = tested on: U-251
RXF 393 = tested on: RXF 393
MDA-MB-435 = tested on: MDA-MB-435
A498 = tested on: A498
SF-268 = tested on: SF-268
SNB-19 = tested on: SNB-19
NCI-H23 = tested on: NCI-H23
MDA-N = tested on: MDA-N
T47D = tested on: T47D
OVCAR-8 = tested on: OVCAR-8
HCC 2998 = tested on: HCC 2998
IGROV-1 = tested on: IGROV-1
ACHN = tested on: ACHN
EKVX = tested on: EKVX
NCI-H522 = tested on: NCI-H522
CCRF-CEM = tested on: CCRF-CEM
PC-3 = tested on: PC-3
M14 = tested on: M14
LOX IMVI = tested on: LOX IMVI
HCT-116 = tested on: HCT-116
DU-145 = tested on: DU-145
CAKI-1 = tested on: CAKI-1
SF-539 = tested on: SF-539
SR = tested on: SR
SN12C = tested on: SN12C
SK-MEL-5 = tested on: SK-MEL-5
HOP-92 = tested on: HOP-92
Malme-3M = tested on: Malme-3M
UO-31 = tested on: UO-31
K562 = tested on: K562
HOP-62 = tested on: HOP-62
OVCAR-3 = tested on: OVCAR-3
SK-MEL-28 = tested on: SK-MEL-28
HT-29 = tested on: HT-29
NCI/ADR-RES = tested on: NCI/ADR-RES
KM12 = tested on: KM12
TK-10 = tested on: TK-10
NCI-H226 = tested on: NCI-H226
SF-295 = tested on: SF-295
BT-549 = tested on: BT-549
SW-620 = tested on: SW-620
MDA-MB-231 = tested on: MDA-MB-231

In the case of `O=C1O/C(=C(\Br)c2ccc([N+](=O)[O-])cc2)c2ccccc21`, the GI50 (HCT-15) is reported as greater than 50.9 µM, the GI50 (OVCAR-4) is reported as > 100 µM (inactive) and the GI50 (COLO 205) is reported as > 100 µM (inactive). For the same molecule, the GI50 (A549) was > 100 µM (inactive), the GI50 (OVCAR-5) was > 100 µM (inactive) and the GI50 (SNB-75) was > 78.3 µM (inactive). The GI50 (786-0) was > 54.6 µM (inactive), the GI50 (UACC-257) was > 74.8 µM (inactive) and the GI50 (MOLT-4) was 27.8 µM (inactive). The GI50 (HL-60) was 36.1 µM (inactive), the GI50 (SK-OV-3) was > 100 µM (inactive) and the GI50 (MCF7) was 48.5 µM (inactive). For the same molecule, the GI50 (SK-MEL-2) was 46.2 µM (inactive), the GI50 (UACC-62) was 58.5 µM (inactive) and the GI50 (Hs-578T) was 74.8 µM (inactive). The GI50 (RPMI-8226) was 38.7 µM (inactive), the GI50 (NCI-H460) was > 100 µM (inactive) and the GI50 (U-251) was 73.3 µM (inactive). The GI50 (RXF 393) was > 100 µM (inactive), the GI50 (MDA-MB-435) was 62.7 µM (inactive) and the GI50 (A498) was > 100 µM (inactive). The GI50 (SF-268) was > 74 µM (inactive), the GI50 (SNB-19) was > 100 µM (inactive) and the GI50 (NCI-H23) was > 100 µM (inactive). For the same molecule, the GI50 (MDA-N) was > 66.2 µM (inactive), the GI50 (T47D) was 86.5 µM (inactive) and the GI50 (OVCAR-8) was > 76.6 µM (inactive). The GI50 (HCC 2998) was > 100 µM (inactive), the GI50 (IGROV-1) was > 100 µM (inactive) and the GI50 (ACHN) was > 100 µM (inactive). The GI50 (EKVX) was > 100 µM (inactive), the GI50 (NCI-H522) was 38.5 µM (inactive) and the GI50 (CCRF-CEM) was 21.4 µM (inactive). The GI50 (PC-3) was > 100 µM (inactive), the GI50 (M14) was > 100 µM (inactive) and the GI50 (LOX IMVI) was 67.8 µM (inactive). The GI50 (HCT-116) was 97.9 µM (inactive), the GI50 (DU-145) was > 100 µM (inactive) and the GI50 (CAKI-1) was > 100 µM (inactive). For the same molecule, the GI50 (SF-539) was > 100 µM (inactive), the GI50 (SR) was 28.8 µM (inactive) and the GI50 (SN12C) was > 100 µM (inactive). For the same molecule, the GI50 (SK-MEL-5) was > 75.7 µM (inactive), the GI50 (HOP-92) was > 100 µM (inactive) and the GI50 (Malme-3M) was > 49.9 µM (inactive). The GI50 (UO-31) was 62.8 µM (inactive), the GI50 (K562) was 30.1 µM (inactive) and the GI50 (HOP-62) was > 80.9 µM (inactive). The GI50 (OVCAR-3) was > 88.5 µM (inactive), the GI50 (SK-MEL-28) was > 100 µM (inactive) and the GI50 (HT-29) was 41.1 µM (inactive). The GI50 (NCI/ADR-RES) was > 100 µM (inactive), the GI50 (KM12) was > 100 µM (inactive) and the GI50 (TK-10) was > 100 µM (inactive). The GI50 (NCI-H226) was > 100 µM (inactive), the GI50 (SF-295) was > 100 µM (inactive) and the GI50 (BT-549) was > 79.8 µM (inactive). For the same molecule, the GI50 (SW-620) was > 64.3 µM (inactive).

With `O=C(NNC(=O)c1ccncc1)C(=O)Nc1cc(Cl)c(Cl)cc1Cl` the GI50 (HCT-15) was greater than 100 µM, the GI50 (OVCAR-4) was > 100 µM (inactive) and the GI50 (A549) was > 100 µM (inactive). The GI50 (OVCAR-5) was > 100 µM (inactive), the GI50 (SNB-75) was > 100 µM (inactive) and the GI50 (786-0) was > 100 µM (inactive). For the same molecule, the GI50 (UACC-257) was > 100 µM (inactive), the GI50 (MOLT-4) was > 100 µM (inactive) and the GI50 (HL-60) was > 100 µM (inactive). For the same molecule, the GI50 (SK-OV-3) was > 100 µM (inactive), the GI50 (MCF7) was > 100 µM (inactive) and the GI50 (SK-MEL-2) was > 100 µM (inactive). The GI50 (UACC-62) was > 100 µM (inactive), the GI50 (Hs-578T) was > 100 µM (inactive) and the GI50 (RPMI-8226) was > 100 µM (inactive). The GI50 (NCI-H460) was > 100 µM (inactive), the GI50 (U-251) was > 100 µM (inactive) and the GI50 (RXF 393) was > 100 µM (inactive). For the same molecule, the GI50 (MDA-MB-435) was > 100 µM (inactive), the GI50 (A498) was > 100 µM (inactive) and the GI50 (SF-268) was > 100 µM (inactive). For the same molecule, the GI50 (SNB-19) was > 100 µM (inactive), the GI50 (NCI-H23) was > 100 µM (inactive) and the GI50 (MDA-N) was > 100 µM (inactive). For the same molecule, the GI50 (T47D) was > 100 µM (inactive), the GI50 (OVCAR-8) was > 100 µM (inactive) and the GI50 (HCC 2998) was 21.5 µM (inactive). For the same molecule, the GI50 (IGROV-1) was 45.6 µM (inactive), the GI50 (ACHN) was > 100 µM (inactive) and the GI50 (EKVX) was > 100 µM (inactive). The GI50 (NCI-H522) was > 100 µM (inactive), the GI50 (CCRF-CEM) was > 10 µM (inactive) and the GI50 (PC-3) was > 100 µM (inactive). For the same molecule, the GI50 (M14) was > 100 µM (inactive), the GI50 (LOX IMVI) was > 100 µM (inactive) and the GI50 (MDA-MB-231) was > 100 µM (inactive). The GI50 (HCT-116) was > 100 µM (inactive), the GI50 (CAKI-1) was > 100 µM (inactive) and the GI50 (SF-539) was > 100 µM (inactive). For the same molecule, the GI50 (SN12C) was > 100 µM (inactive), the GI50 (SK-MEL-5) was > 100 µM (inactive) and the GI50 (HOP-92) was > 100 µM (inactive). The GI50 (Malme-3M) was > 100 µM (inactive), the GI50 (UO-31) was > 100 µM (inactive) and the GI50 (K562) was > 100 µM (inactive). For the same molecule, the GI50 (HOP-62) was > 100 µM (inactive), the GI50 (OVCAR-3) was > 100 µM (inactive) and the GI50 (SK-MEL-28) was > 100 µM (inactive). The GI50 (HT-29) was > 100 µM (inactive), the GI50 (NCI/ADR-RES) was > 100 µM (inactive) and the GI50 (KM12) was > 100 µM (inactive). For the same molecule, the GI50 (TK-10) was > 100 µM (inactive), the GI50 (NCI-H226) was > 100 µM (inactive) and the GI50 (SF-295) was > 100 µM (inactive). The GI50 (BT-549) was > 100 µM (inactive) and the GI50 (SW-620) was > 100 µM (inactive).
